# Results as given in PubChem BioAssay AID1963862 (Molecular Pharmacology Branch, DTP, NCI, 2024).
# Tested on: KRAS patient-derived spheroids with HUVEC/MSC, viability
# Test: Anticancer human tumor 941728-121-R-J1-PDC patient-derived lung adenocarcinoma cell line growth inhibition [KRAS2]
# Settings: for IC50: curve of first compound; for viability, T/C: stronger effect = lower value
# How it was run: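 Combination screen of spheroid viability in tumor-cell co-cultures with endothelial (HUVEC) and mesenchymal stem cell stroma. Each agent was tested in half-log dilutions, topping at clinical Cmax or at 10 microM without a known Cmax.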
# [1] = second compound 0.1 µM, first compound 0.0316 µM
# [2] = second compound 0.1 µM, first compound 0.1 µM
# [3] = second compound 0.316 µM, first compound 0.0316 µM
# [4] = second compound 0.316 µM, first compound 0.1 µM
# [5] = second compound 1 µM, first compound 0.0316 µM
# [6] = second compound 1 µM, first compound 0.1 µM
# [7] = second compound 3.16 µM, first compound 0.0316 µM
# [8] = second compound 3.16 µM, first compound 0.1 µM
# [9] = second compound 10 µM, first compound 0.0316 µM
# [10] = second compound 10 µM, first compound 0.1 µM
# 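Note: spheroids exposed to agents for seven days before readout.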
smiles,measurement,setting,value
CN(C)C/C=C/C(=O)Nc1cc2c(Nc3ccc(F)c(Cl)c3)ncnc2cc1O[C@H]1CCOC1 + COc1cc2nc(C)nc(NC(C)c3cc(N)cc(C(F)(F)F)c3)c2cc1OC1CCOC1,IC50,second compound 0.1 µM,0.885 nM
same,IC50,second compound 0.316 µM,< 0.316 nM
same,IC50,second compound 1 µM,< 0.316 nM
same,IC50,second compound 3.16 µM,< 0.316 nM
same,IC50,second compound 10 µM,< 0.316 nM
same,"viability, T/C","second compound 0.1 µM, first compound 0.000316 µM",60.5%
same,"viability, T/C","second compound 0.1 µM, first compound 0.001 µM",50.3%
same,"viability, T/C","second compound 0.1 µM, first compound 0.00316 µM",42.9%
same,"viability, T/C","second compound 0.1 µM, first compound 0.01 µM",44.4%
same,"viability, T/C",[1],43.4%
same,"viability, T/C",[2],49.3%
same,"viability, T/C","second compound 0.316 µM, first compound 0.000316 µM",37.2%
same,"viability, T/C","second compound 0.316 µM, first compound 0.001 µM",32.5%
same,"viability, T/C","second compound 0.316 µM, first compound 0.00316 µM",32.5%
same,"viability, T/C","second compound 0.316 µM, first compound 0.01 µM",30.5%
same,"viability, T/C",[3],31.1%
same,"viability, T/C",[4],36.4%
same,"viability, T/C","second compound 1 µM, first compound 0.000316 µM",40.6%
same,"viability, T/C","second compound 1 µM, first compound 0.001 µM",34.3%
same,"viability, T/C","second compound 1 µM, first compound 0.00316 µM",28.9%
same,"viability, T/C","second compound 1 µM, first compound 0.01 µM",34.3%
same,"viability, T/C",[5],33.3%
same,"viability, T/C",[6],34.4%
same,"viability, T/C","second compound 3.16 µM, first compound 0.000316 µM",20.1%
same,"viability, T/C","second compound 3.16 µM, first compound 0.001 µM",20.4%
same,"viability, T/C","second compound 3.16 µM, first compound 0.00316 µM",18.3%
same,"viability, T/C","second compound 3.16 µM, first compound 0.01 µM",15.4%
same,"viability, T/C",[7],14.8%
same,"viability, T/C",[8],15.8%
same,"viability, T/C","second compound 10 µM, first compound 0.000316 µM",19.4%
same,"viability, T/C","second compound 10 µM, first compound 0.001 µM",15.2%
same,"viability, T/C","second compound 10 µM, first compound 0.00316 µM",16%
same,"viability, T/C","second compound 10 µM, first compound 0.01 µM",14.6%
same,"viability, T/C",[9],14.7%
same,"viability, T/C",[10],16.4%
Cn1nccc1Nc1nccc(-c2cc3c(s2)C(C)(C)N(CCN2CCOCC2)C3=O)n1 + CNCc1ccccc1-c1csc(C(C)Nc2nc(C)nc3cc(OC)c(OC)cc23)c1,IC50,second compound 0.1 µM,81.2 nM
same,IC50,second compound 0.316 µM,< 31.6 nM
same,IC50,second compound 1 µM,< 31.6 nM
same,IC50,second compound 3.16 µM,< 31.6 nM
same,IC50,second compound 10 µM,< 31.6 nM
same,"viability, T/C",[1],70.3%
same,"viability, T/C",[2],46.4%
same,"viability, T/C","second compound 0.1 µM, first compound 0.316 µM",37.4%
same,"viability, T/C","second compound 0.1 µM, first compound 1 µM",37.9%
same,"viability, T/C","second compound 0.1 µM, first compound 3.16 µM",36.8%
same,"viability, T/C","second compound 0.1 µM, first compound 10 µM",40.7%
same,"viability, T/C",[3],40.3%
same,"viability, T/C",[4],37.9%
same,"viability, T/C","second compound 0.316 µM, first compound 0.316 µM",34.8%
same,"viability, T/C","second compound 0.316 µM, first compound 1 µM",32.3%
same,"viability, T/C","second compound 0.316 µM, first compound 3.16 µM",31%
same,"viability, T/C","second compound 0.316 µM, first compound 10 µM",29.6%
same,"viability, T/C",[5],35.6%
same,"viability, T/C",[6],30.3%
same,"viability, T/C","second compound 1 µM, first compound 0.316 µM",31.6%
same,"viability, T/C","second compound 1 µM, first compound 1 µM",21.3%
same,"viability, T/C","second compound 1 µM, first compound 3.16 µM",11.4%
same,"viability, T/C","second compound 1 µM, first compound 10 µM",13.1%
same,"viability, T/C",[7],1.11%
same,"viability, T/C",[8],2.35%
same,"viability, T/C","second compound 3.16 µM, first compound 0.316 µM",1.61%
same,"viability, T/C","second compound 3.16 µM, first compound 1 µM",0.99%
same,"viability, T/C","second compound 3.16 µM, first compound 3.16 µM",1.35%
same,"viability, T/C","second compound 3.16 µM, first compound 10 µM",0.25%
same,"viability, T/C",[9],0.56%
same,"viability, T/C",[10],0.88%
same,"viability, T/C","second compound 10 µM, first compound 0.316 µM",0.44%
same,"viability, T/C","second compound 10 µM, first compound 1 µM",0.77%
same,"viability, T/C","second compound 10 µM, first compound 3.16 µM",0.11%
same,"viability, T/C","second compound 10 µM, first compound 10 µM",0.35%
